Reference: article PMC7531004, “Discovery of gramicidin A analogues with altered activities by multidimensional screening of a one-bead-one-compound library” (Nature Communications, 2020)
Where a SMILES comes first, the peptide text is derived from it. [ ]: non-standard residue; d: D form. The star is where a group is joined. NHCH2CH2OH = OCCN*; For = O=C*

Assays:
[1] = H+/Na+ transport assay of bead-derived peptides (one-point); type: biochemical; design: key: relative activity; mean of two control wells = 1.00; settings: bead-derived peptide solution, EYPC/EYPG LUVs;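 note: relative to parent gramicidin A activity set to 1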
How it was run: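 H+/Na+ transport is monitored through pyranine fluorescence in freshly extruded LUVs after a 30-min room-temperature vortex with each library peptide at a single concentration. Signals are normalized to detergent (Triton X-100) and untreated controls.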

[2] = system: P388 mouse leukemia cells; settings: 92 h
How it was run: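 First, library peptide stocks are diluted 250-fold in RPMI1640 with 10% heat-inactivated FBS. Next, they are mixed with P388 cells to give 1 × 10^4 cells/mL and incubated 92 h at 37 °C, 5% CO2. Finally, viability (%) is scored by WST-1 absorbance at 415 nm.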

[3] = system: Streptococcus pyogenes SSI-9; assay: Antibacterial activity assay of bead-derived peptides (three concentrations); type: cell-based; design: key: +++: inhibition by the 640-fold diluted peptide solution; ++: inhibition by the 160-fold diluted solution; +: inhibition by the 40-fold diluted solution; -: no inhibition; settings: S. pyogenes, bead-derived peptide solution, three concentrations
How it was run: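 Bead-derived library peptide stocks in DMSO were tested undiluted and after 4- and 16-fold DMSO dilution against S. pyogenes SSI-9 (2 × 10^5 CFU/well) in cation-adjusted Mueller Hinton Broth with 5% laked horse blood. After 18 h at 37 °C, wells were scored for precipitation of grown cells.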

SMILES	H+/Na+ transport activity normalized against the value of 1 (1.00) [1]	cell viability/% [2] [%]	antibacterial activity [3]
CNC(=O)C[C@@H](NC(=O)[C@@H](NC(=O)[C@H](NC(=O)[C@H](C)NC(=O)[C@H](NC(=O)[C@H](C)NC(=O)CNC(=O)[C@@H](NC=O)C(C)C)C(C)C)C(C)C)C(C)C)C(=O)N[C@@H](Cc1c[nH]c2ccccc12)C(=O)N[C@H](CC(C)C)C(=O)N[C@@H](Cc1c[nH]c2ccccc12)C(=O)N[C@H](CC(C)C)C(=O)N[C@@H](Cc1c[nH]c2ccccc12)C(=O)N[C@H](CC(C)C)C(=O)N[C@@H](Cc1c[nH]c2ccccc12)C(=O)NCCO [compound 7437] (For-VGA[dV]A[dV]V[dD](NHMe)W[dL]W[dL]W[dL]W-NHCH2CH2OH)	1.11	100.0	-
CNC(=O)C[C@@H](NC(=O)[C@H](Cc1c[nH]c2ccccc12)NC(=O)[C@H](NC(=O)[C@H](Cc1c[nH]c2ccccc12)NC(=O)[C@H](NC(=O)[C@H](Cc1c[nH]c2ccccc12)NC(=O)[C@H](NC(=O)[C@@H](NC(=O)[C@@H](CC(C)C)NC(=O)[C@H](C)NC(=O)[C@H](NC(=O)[C@H](C)NC(=O)CNC(=O)[C@@H](NC=O)C(C)C)C(C)C)C(C)C)C(C)C)C(C)C)C(C)C)C(=O)N[C@@H](Cc1c[nH]c2ccccc12)C(=O)NCCO [compound 7479] (For-VGA[dV]A[dL]V[dV]W[dV]W[dV]W[dD](NHMe)W-NHCH2CH2OH)	1.00	100.0	-
CC(C)C[C@@H](NC(=O)[C@H](C)NC(=O)CNC(=O)[C@@H](NC=O)C(C)C)C(=O)N[C@@H](C)C(=O)N[C@H](CC(C)C)C(=O)N[C@H](C(=O)N[C@H](CC(C)C)C(=O)N[C@@H](Cc1c[nH]c2ccccc12)C(=O)N[C@@H](C(=O)N[C@@H](Cc1c[nH]c2ccccc12)C(=O)N[C@H](CC(C)C)C(=O)N[C@@H](Cc1c[nH]c2ccccc12)C(=O)N[C@@H](C(=O)N[C@@H](Cc1c[nH]c2ccccc12)C(=O)NCCO)C(C)C)[C@H](C)O)C(C)C [compound 7480] (For-VGA[dL]A[dL]V[dL]W[dT]W[dL]W[dV]W-NHCH2CH2OH)	1.01	100.0	-
CC(C)C[C@@H](NC(=O)[C@H](C)NC(=O)CNC(=O)[C@@H](NC=O)C(C)C)C(=O)N[C@@H](C)C(=O)N[C@@H](C(=O)N[C@H](C(=O)N[C@@H](C(=O)N[C@@H](Cc1c[nH]c2ccccc12)C(=O)N[C@@H](C(=O)N[C@@H](Cc1c[nH]c2ccccc12)C(=O)N[C@@H](C(=O)N[C@@H](Cc1c[nH]c2ccccc12)C(=O)N[C@@H](C(=O)N[C@@H](Cc1c[nH]c2ccccc12)C(=O)NCCO)C(C)C)C(C)C)C(C)C)C(C)C)C(C)C)C(C)C [compound 7516] (For-VGA[dL]A[dV]V[dV]W[dV]W[dV]W[dV]W-NHCH2CH2OH)	1.03	100.0	+
CC(C)C[C@@H](NC(=O)[C@H](C)NC(=O)CNC(=O)[C@@H](NC=O)C(C)C)C(=O)N[C@@H](C)C(=O)N[C@H](CC(C)C)C(=O)N[C@H](C(=O)N[C@@H](C(=O)N[C@@H](Cc1c[nH]c2ccccc12)C(=O)N[C@@H](C(=O)N[C@@H](Cc1c[nH]c2ccccc12)C(=O)N[C@@H](C(=O)N[C@@H](Cc1c[nH]c2ccccc12)C(=O)N[C@H](CC(C)C)C(=O)N[C@@H](Cc1c[nH]c2ccccc12)C(=O)NCCO)C(C)C)C(C)C)[C@H](C)O)C(C)C [compound 7548] (For-VGA[dL]A[dL]V[dT]W[dV]W[dV]W[dL]W-NHCH2CH2OH)	1.08	100.0	-
CC(C)C[C@@H](NC(=O)[C@H](Cc1c[nH]c2ccccc12)NC(=O)[C@H](NC(=O)[C@H](Cc1c[nH]c2ccccc12)NC(=O)[C@@H](CC(C)C)NC(=O)[C@H](Cc1c[nH]c2ccccc12)NC(=O)[C@H](NC(=O)[C@@H](NC(=O)[C@H](NC(=O)[C@H](C)NC(=O)[C@H](NC(=O)[C@H](C)NC(=O)CNC(=O)[C@@H](NC=O)C(C)C)C(C)C)C(C)C)C(C)C)[C@H](C)O)C(C)C)C(=O)N[C@@H](Cc1c[nH]c2ccccc12)C(=O)NCCO [compound 7702] (For-VGA[dV]A[dV]V[dT]W[dL]W[dV]W[dL]W-NHCH2CH2OH)	1.01	100.0	-
CNC(=O)C[C@@H](NC(=O)[C@@H](NC(=O)[C@H](NC(=O)[C@H](C)NC(=O)[C@@H](CC(C)C)NC(=O)[C@H](C)NC(=O)CNC(=O)[C@@H](NC=O)C(C)C)C(C)C)C(C)C)C(=O)N[C@@H](Cc1c[nH]c2ccccc12)C(=O)N[C@@H](C(=O)N[C@@H](Cc1c[nH]c2ccccc12)C(=O)N[C@H](CC(C)C)C(=O)N[C@@H](Cc1c[nH]c2ccccc12)C(=O)N[C@H](CC(C)C)C(=O)N[C@@H](Cc1c[nH]c2ccccc12)C(=O)NCCO)C(C)C [compound 7808] (For-VGA[dL]A[dV]V[dD](NHMe)W[dV]W[dL]W[dL]W-NHCH2CH2OH)	1.21	100.0	-
CC(C)C[C@@H](NC(=O)[C@H](C)NC(=O)[C@H](NC(=O)[C@H](C)NC(=O)CNC(=O)[C@@H](NC=O)C(C)C)C(C)C)C(=O)N[C@H](C(=O)N[C@@H](C(=O)N[C@@H](Cc1c[nH]c2ccccc12)C(=O)N[C@@H](C(=O)N[C@@H](Cc1c[nH]c2ccccc12)C(=O)N[C@H](CC(C)C)C(=O)N[C@@H](Cc1c[nH]c2ccccc12)C(=O)N[C@H](CC(C)C)C(=O)N[C@@H](Cc1c[nH]c2ccccc12)C(=O)NCCO)C(C)C)[C@H](C)O)C(C)C [compound 7840] (For-VGA[dV]A[dL]V[dT]W[dV]W[dL]W[dL]W-NHCH2CH2OH)	1.12	100.0	-
CC(C)C[C@@H](NC(=O)[C@H](C)NC(=O)CNC(=O)[C@@H](NC=O)C(C)C)C(=O)N[C@@H](C)C(=O)N[C@H](CC(C)C)C(=O)N[C@H](C(=O)N[C@@H](C(=O)N[C@@H](Cc1c[nH]c2ccccc12)C(=O)N[C@@H](C(=O)N[C@@H](Cc1c[nH]c2ccccc12)C(=O)N[C@@H](C(=O)N[C@@H](Cc1c[nH]c2ccccc12)C(=O)N[C@@H](C(=O)N[C@@H](Cc1c[nH]c2ccccc12)C(=O)NCCO)C(C)C)C(C)C)C(C)C)C(C)C)C(C)C [compound 7845] (For-VGA[dL]A[dL]V[dV]W[dV]W[dV]W[dV]W-NHCH2CH2OH)	1.04	100.0	+
CC(C)C[C@@H](NC(=O)[C@H](Cc1c[nH]c2ccccc12)NC(=O)[C@@H](CC(C)C)NC(=O)[C@H](Cc1c[nH]c2ccccc12)NC(=O)[C@@H](CC(C)C)NC(=O)[C@H](Cc1c[nH]c2ccccc12)NC(=O)[C@@H](CC(C)C)NC(=O)[C@@H](NC(=O)[C@H](NC(=O)[C@H](C)NC(=O)[C@H](NC(=O)[C@H](C)NC(=O)CNC(=O)[C@@H](NC=O)C(C)C)C(C)C)C(C)C)C(C)C)C(=O)N[C@@H](Cc1c[nH]c2ccccc12)C(=O)NCCO [compound 7864] (For-VGA[dV]A[dV]V[dL]W[dL]W[dL]W[dL]W-NHCH2CH2OH)	1.01	10.8	+
CC(C)C[C@@H](NC(=O)[C@H](C)NC(=O)[C@H](NC(=O)[C@H](C)NC(=O)CNC(=O)[C@@H](NC=O)C(C)C)[C@H](C)O)C(=O)N[C@H](C(=O)N[C@H](CC(C)C)C(=O)N[C@@H](Cc1c[nH]c2ccccc12)C(=O)N[C@@H](C(=O)N[C@@H](Cc1c[nH]c2ccccc12)C(=O)N[C@H](CC(C)C)C(=O)N[C@@H](Cc1c[nH]c2ccccc12)C(=O)N[C@H](CC(C)C)C(=O)N[C@@H](Cc1c[nH]c2ccccc12)C(=O)NCCO)C(C)C)C(C)C [compound 7890] (For-VGA[dT]A[dL]V[dL]W[dV]W[dL]W[dL]W-NHCH2CH2OH)	1.11	100.0	-
CC(C)C[C@@H](NC(=O)[C@H](C)NC(=O)[C@H](NC(=O)[C@H](C)NC(=O)CNC(=O)[C@@H](NC=O)C(C)C)[C@H](C)O)C(=O)N[C@H](C(=O)N[C@H](CC(C)C)C(=O)N[C@@H](Cc1c[nH]c2ccccc12)C(=O)N[C@H](CC(C)C)C(=O)N[C@@H](Cc1c[nH]c2ccccc12)C(=O)N[C@H](CC(C)C)C(=O)N[C@@H](Cc1c[nH]c2ccccc12)C(=O)N[C@H](CC(C)C)C(=O)N[C@@H](Cc1c[nH]c2ccccc12)C(=O)NCCO)C(C)C [compound 7905] (For-VGA[dT]A[dL]V[dL]W[dL]W[dL]W[dL]W-NHCH2CH2OH)	1.10	100.0	-
CC(C)C[C@@H](NC(=O)[C@H](C)NC(=O)CNC(=O)[C@@H](NC=O)C(C)C)C(=O)N[C@@H](C)C(=O)N[C@@H](C(=O)N[C@H](C(=O)N[C@H](CC(C)C)C(=O)N[C@@H](Cc1c[nH]c2ccccc12)C(=O)N[C@@H](C(=O)N[C@@H](Cc1c[nH]c2ccccc12)C(=O)N[C@@H](C(=O)N[C@@H](Cc1c[nH]c2ccccc12)C(=O)N[C@@H](C(=O)N[C@@H](Cc1c[nH]c2ccccc12)C(=O)NCCO)C(C)C)C(C)C)C(C)C)C(C)C)C(C)C [compound 7938] (For-VGA[dL]A[dV]V[dL]W[dV]W[dV]W[dV]W-NHCH2CH2OH)	1.10	17.4	+
